Source: patent publication US9540350B2, “1-substituted, 4-(substituted phenoxymethyl)-1,2,3-triazole compounds with antifungal properties and methods for preparation thereof” (FDC LIMITED, priority 2013, dated 2017)
Values after ≈ are worked out from the molar mass of the structure shown. Where two headings read alike, the source gives them in different places.

Experiments:
C. albicans ATCC 24433 = assay: Antifungal susceptibility, broth dilution MIC (CLSI M27-A2); type: cell-based; settings: Candida albicans, read-out: Activity against organisms (MIC50) Ca01
Procedure: (§1) The compounds of Formula 1 were tested for antifungal activity against Candida albicans, C. glabrata, C. krusei, C. tropicalis, Cryptococcus neoformans, Aspergillus fumigatus, A. niger and Fusarium proliferatum. In vitro evaluation of antifungal activity was performed by determining the minimum inhibitory concentration (MIC) following standard methods (CLSI: Reference method for broth dilution antifungal susceptibility testing of yeasts; Approved standard, second edition M27-A2, 2002; CLSI: Reference method for broth dilution antifungal susceptibility testing of filamentous fungi; Approved standard M38-A, 2002). Anti-fungal susceptibility testing of these anti-fungal compounds was done by broth dilution method using RPMI 1640 medium with MOPS buffer. Known anti-fungal agent fluconazole was used as positive control. End points were determined after 48 hours visually and by using spectrophotometer wherever necessary. Different dilutions were tried and various sets of experiments performed. The activity parameters are enumerated in Table 4.

C. glabrata ATCC 90030 = assay: as above; type: cell-based, Candida glabrata; settings: Nakaseomyces glabratus, read-out: Activity against organisms (MIC50) Cg01
Procedure: as §1

C. krusei ATCC 6258 = assay: as above; type: cell-based, Candida krusei; settings: Pichia kudriavzevii, read-out: Activity against organisms (MIC50) Ck01
Procedure: as §1

C. tropicalis ATCC 750 = assay: as above; type: cell-based, Candida tropicalis; settings: Candida tropicalis, read-out: Activity against organisms (MIC50) Ct01
Procedure: as §1

C. neoformans ATCC 34664 = assay: as above; type: cell-based, Cryptococcus neoformans; settings: Cryptococcus neoformans, read-out: Activity against organisms (MIC50) Cn01
Procedure: as §1

A. fumigatus ATCC 46645 = assay: Antifungal susceptibility, broth dilution MIC (CLSI M38-A); type: cell-based; settings: Aspergillus fumigatus, read-out: Activity against organisms (MIC50) Afm01
Procedure: as §1

A. niger ATCC 16404 = assay: as above; type: cell-based; settings: Aspergillus niger, read-out: Activity against organisms (MIC50) An01
Procedure: as §1

[1] = tested on: F. proliferatum ATCC 10052; assay: as above; type: cell-based; settings: Fusarium proliferatum, read-out: Activity against organisms (MIC50) Fp01
Procedure: as §1

[2] = ATCC24433, C. albicans ATCC 24433, broth dilution, RPMI 1640 with MOPS, 48 hours
[3] = ATCC90030, C. glabrata ATCC 90030, broth dilution, RPMI 1640 with MOPS, 48 hours
[4] = ATCC6258, C. krusei ATCC 6258, broth dilution, RPMI 1640 with MOPS, 48 hours
[5] = ATCC750, C. tropicalis ATCC 750, broth dilution, RPMI 1640 with MOPS, 48 hours
[6] = ATCC34664, C. neoformans ATCC 34664, broth dilution, RPMI 1640 with MOPS, 48 hours
[7] = ATCC46645, A. fumigatus ATCC 46645, broth dilution, RPMI 1640 with MOPS, 48 hours
[8] = ATCC16404, A. niger ATCC 16404, broth dilution, RPMI 1640 with MOPS, 48 hours
[9] = ATCC10052, F. proliferatum ATCC 10052, broth dilution, RPMI 1640 with MOPS, 48 hours

Compound	MIC50 (C. albicans ATCC 24433; [2]) [µg/mL]	MIC50 (C. glabrata ATCC 90030; [3]) [µg/mL]	MIC50 (C. krusei ATCC 6258; [4]) [µg/mL]	MIC50 (C. tropicalis ATCC 750; [5]) [µg/mL]	MIC50 (C. neoformans ATCC 34664; [6]) [µg/mL]	MIC50 (A. fumigatus ATCC 46645; [7]) [µg/mL]	MIC50 (A. niger ATCC 16404; [8]) [µg/mL]	MIC50 [1, 9] [µg/mL]	MIC50 (C. albicans ATCC 24433; ATCC24433, 48 h) [µg/mL]	MIC50 (C. glabrata ATCC 90030; ATCC90030, 48 h) [µg/mL]	MIC50 (C. krusei ATCC 6258; ATCC6258, 48 h) [µg/mL]	MIC50 (C. tropicalis ATCC 750; ATCC750, 48 h) [µg/mL]	MIC50 (C. neoformans ATCC 34664; ATCC34664, 48 h) [µg/mL]	MIC50 (A. fumigatus ATCC 46645; ATCC46645, 48 h) [µg/mL]	MIC50 (A. niger ATCC 16404; ATCC16404, 48 h) [µg/mL]	MIC50 ([1]; ATCC10052, 48 h) [µg/mL]
COc1ccc(/C=C/C(=O)c2ccc(OCc3cn(CC(O)(Cn4cncn4)c4ccc(F)cc4F)nn3)cc2)cc1 (centres unmarked) [Compound 1A-2, (E)-1-(4-((1-(2-(2,4-Difluorophenyl)-2-hydroxy-3-(1H-1,2,4-triazol-1-yl)propyl)-1H-1,2,3-triazol-4-yl)methoxy)phenyl)-3-(4-methoxyphenyl)prop-2-en-1-one]	0.25 (≈ 0.437 µM)	1 (≈ 1.75 µM)	8 (≈ 14 µM)	2 (≈ 3.49 µM)	1 (≈ 1.75 µM)	> 4	> 4	> 4	–	–	–	–	–	–	–	–
Cc1ccc(/C=C/C(=O)c2ccc(OCc3cn(CC(O)(Cn4cncn4)c4ccc(F)cc4F)nn3)cc2)cc1 (centres unmarked) [Compound 1A-3, (E)-1-(4-((1-(2-(2,4-Difluorophenyl)-2-hydroxy-3-(1H-1,2,4-triazol-1-yl)propyl)-1H-1,2,3-triazol-4-yl)methoxy)phenyl)-3-(4-methylphenyl)prop-2-en-1-one]	0.25 (≈ 0.449 µM)	0.25 (≈ 0.449 µM)	4 (≈ 7.19 µM)	2 (≈ 3.59 µM)	0.5 (≈ 0.898 µM)	> 4	> 4	> 4	–	–	–	–	–	–	–	–
CC(=O)/C=C/c1ccc(OCc2cn(CC(O)(Cn3cncn3)c3ccc(F)cc3F)nn2)cc1 (centres unmarked) [Compound 1B-3, (E)-4-(4-((1-(2-(2,4-Difluorophenyl)-2-hydroxy-3-(1H-1,2,4-triazol-1-yl)propyl)-1H-1,2,3-triazol-4-yl)methoxy)phenyl)but-3-en-2-one]	–	–	–	–	–	–	–	–	0.12 (≈ 0.25 µM)	0.5 (≈ 1.04 µM)	16 (≈ 33.3 µM)	1 (≈ 2.08 µM)	2 (≈ 4.16 µM)	> 64	> 64	> 64
CCCCCN1CCN(c2ccc(C(=O)/C=C/c3ccc(OCc4cn(CC(O)(Cn5cncn5)c5ccc(F)cc5F)nn4)cc3)cc2)CC1 (centres unmarked) [Compound 1B-7, (E)-3-(4-((1-(2-(2,4-Difluorophenyl)-2-hydroxy-3-(1H-1,2,4-triazol-1-yl)propyl)-1H-1,2,3-triazol-4-yl)methoxy)phenyl)-1-(4-(4-n-pentylpiperazin-1-yl)phenyl)-prop-2-en-1-one]	0.5 (≈ 0.718 µM)	0.5 (≈ 0.718 µM)	8 (≈ 11.5 µM)	2 (≈ 2.87 µM)	2 (≈ 2.87 µM)	> 2	> 2	> 2	–	–	–	–	–	–	–	–
COc1ccc(CN2CCN(c3ccc(C(=O)/C=C/c4ccc(OCc5cn(CC(O)(Cn6cncn6)c6ccc(F)cc6F)nn5)cc4)cc3)CC2)cc1 (centres unmarked) [Compound 1B-8, (E)-3-(4-((1-(2-(2,4-Difluorophenyl)-2-hydroxy-3-(1H-1,2,4-triazol-1-yl)propyl)-1H-1,2,3-triazol-4-yl)methoxy)phenyl)-1-(4-(4-(4-methoxybenzyl)piperazin-1-yl)phenyl)prop-2-en-1-one]	0.12 (≈ 0.161 µM)	0.12 (≈ 0.161 µM)	2 (≈ 2.68 µM)	0.5 (≈ 0.67 µM)	0.5 (≈ 0.67 µM)	> 8	> 8	> 8	–	–	–	–	–	–	–	–
C=C=CCOc1ccc(/C=C/C(=O)/C=C/c2ccc(OCc3cn(CC(O)(Cn4cncn4)c4ccc(F)cc4F)nn3)cc2)cc1 (centres unmarked) [Compound 1B-9, (1E,4E)-1-(4-(Buta-2,3-dienyloxy)phenyl)-5-(4-((1-(2-(2,4-difluorophenyl)-2-hydroxy-3-(1H-1,2,4-triazol-1-yl)propyl)-1H-1,2,3-triazol-4-yl)methoxy)phenyl)penta-1,4-dien-3-one]	0.25 (≈ 0.393 µM)	0.5 (≈ 0.785 µM)	2 (≈ 3.14 µM)	1 (≈ 1.57 µM)	0.25 (≈ 0.393 µM)	> 2	> 2	> 2	–	–	–	–	–	–	–	–

Continued, in another order:

MIC50 (C. albicans ATCC 24433; [2]) [µg/mL]	MIC50 (C. glabrata ATCC 90030; [3]) [µg/mL]	MIC50 (C. krusei ATCC 6258; [4]) [µg/mL]	MIC50 (C. tropicalis ATCC 750; [5]) [µg/mL]	MIC50 (C. neoformans ATCC 34664; [6]) [µg/mL]	MIC50 (A. fumigatus ATCC 46645; [7]) [µg/mL]	MIC50 (A. niger ATCC 16404; [8]) [µg/mL]	MIC50 [1, 9] [µg/mL]	Compound	MIC50 (C. albicans ATCC 24433; ATCC24433, 48 h) [µg/mL]	MIC50 (C. glabrata ATCC 90030; ATCC90030, 48 h) [µg/mL]	MIC50 (C. krusei ATCC 6258; ATCC6258, 48 h) [µg/mL]	MIC50 (C. tropicalis ATCC 750; ATCC750, 48 h) [µg/mL]	MIC50 (C. neoformans ATCC 34664; ATCC34664, 48 h) [µg/mL]	MIC50 (A. fumigatus ATCC 46645; ATCC46645, 48 h) [µg/mL]	MIC50 (A. niger ATCC 16404; ATCC16404, 48 h) [µg/mL]	MIC50 ([1]; ATCC10052, 48 h) [µg/mL]
0.12 (≈ 0.221 µM)	0.12 (≈ 0.221 µM)	4 (≈ 7.37 µM)	1 (≈ 1.84 µM)	0.5 (≈ 0.922 µM)	> 8	> 8	> 8	O=C(/C=C/c1ccccc1)c1ccc(OCc2cn(CC(O)(Cn3cncn3)c3ccc(F)cc3F)nn2)cc1 (centres unmarked) [Compound 1A-1, (E)-1-(4-((1-(2-(2,4-Difluorophenyl)-2-hydroxy-3-(1H-1,2,4-triazol-1-yl)propyl)-1H-1,2,3-triazol-4-yl)methoxy)phenyl)-3-phenylprop-2-en-1-one]	–	–	–	–	–	–	–	–
0.12 (≈ 0.219 µM)	0.5 (≈ 0.911 µM)	4 (≈ 7.29 µM)	1 (≈ 1.82 µM)	0.5 (≈ 0.911 µM)	> 8	> 8	> 8	O=C(/C=C/c1cccs1)c1ccc(OCc2cn(CC(O)(Cn3cncn3)c3ccc(F)cc3F)nn2)cc1 (centres unmarked) [Compound 1A-4, (E)-1-(4-((1-(2-(2,4-Difluorophenyl)-2-hydroxy-3-(1H-1,2,4-triazol-1-yl)propyl)-1H-1,2,3-triazol-4-yl)methoxy)phenyl)-3-(2-thienyl)prop-2-en-1-one]	–	–	–	–	–	–	–	–
0.12 (≈ 0.21 µM)	0.5 (≈ 0.873 µM)	4 (≈ 6.99 µM)	1 (≈ 1.75 µM)	1 (≈ 1.75 µM)	> 4	> 4	> 4	COc1ccc(C(=O)/C=C/c2ccc(OCc3cn(CC(O)(Cn4cncn4)c4ccc(F)cc4F)nn3)cc2)cc1 (centres unmarked) [Compound 1B-1]	–	–	–	–	–	–	–	–
0.06 (≈ 0.107 µM)	0.5 (≈ 0.892 µM)	4 (≈ 7.14 µM)	2 (≈ 3.57 µM)	0.25 (≈ 0.446 µM)	> 4	> 4	> 4	O=C(/C=C/c1ccc(OCc2cn(CC(O)(Cn3cncn3)c3ccc(F)cc3F)nn2)cc1)c1ccc(F)cc1 (centres unmarked) [Compound 1B-2, (E)-3-(4-((1-(2-(2,4-Difluorophenyl)-2-hydroxy-3-(1H-1,2,4-triazol-1-yl)propyl)-1H-1,2,3-triazol-4-yl)methoxy)phenyl)-1-(4-fluorophenyl)prop-2-en-1-one]	–	–	–	–	–	–	–	–
0.12 (≈ 0.237 µM)	0.5 (≈ 0.987 µM)	> 32	2 (≈ 3.95 µM)	1 (≈ 1.97 µM)	> 32	> 32	> 32	O=C(/C=C/c1ccc(OCc2cn(CC(O)(Cn3cncn3)c3ccc(F)cc3F)nn2)cc1)C1CC1 (centres unmarked) [Compound 1B-4, (E)-1-(Cyclopropyl)-3-(4-((1-(2-(2,4-difluorophenyl)-2-hydroxy-3-(1H-1,2,4-triazol-1-yl)propyl)-1H-1,2,3-triazol-4-yl)methoxy)phenyl)prop-2-en-1-one]	–	–	–	–	–	–	–	–
0.06 (≈ 0.0897 µM)	0.5 (≈ 0.748 µM)	> 4	0.5 (≈ 0.748 µM)	1 (≈ 1.5 µM)	> 4	> 4	> 4	CCCN1CCN(c2ccc(C(=O)/C=C/c3ccc(OCc4cn(CC(O)(Cn5cncn5)c5ccc(F)cc5F)nn4)cc3)cc2)CC1 (centres unmarked) [Compound 1B-5, (E)-3-(4-((1-(2-(2,4-Difluorophenyl)-2-hydroxy-3-(1H-1,2,4-triazol-1-yl)propyl)-1H-1,2,3-triazol-4-yl)methoxy)phenyl)-1-(4-(4-propylpiperazin-1-yl)phenyl)prop-2-en-1-one]	–	–	–	–	–	–	–	–
0.12 (≈ 0.176 µM)	0.5 (≈ 0.732 µM)	> 4	0.5 (≈ 0.732 µM)	1 (≈ 1.46 µM)	> 4	> 4	> 4	CCCCN1CCN(c2ccc(C(=O)/C=C/c3ccc(OCc4cn(CC(O)(Cn5cncn5)c5ccc(F)cc5F)nn4)cc3)cc2)CC1 (centres unmarked) [Compound 1B-6, (E)-1-(4-(4-n-Butylpiperazin-1-yl)phenyl)-3-(4-((1-(2-(2,4-difluorophehyl)-2-hydroxy-3-(1H-1,2,4-triazol-1-yl)propyl)-1H-1,2,3-triazol-4-yl)methoxy)phenyl)prop-2-en-1-one]	–	–	–	–	–	–	–	–
